Data from BigSolDB 2.1.

Nc1ncnc2c1ncn2[C@@H]1O[C@H](COP(=O)(O)O)[C@@H](O)[C@H]1O
solubility (mole fraction)
Conditions | in acetic acid | in ethanol | in methanol | in water
288.15 K | 7.85e-05 | 5.3e-06 | 8.59e-06 | –
288.2 K | – | – | – | 0.000257
294.15 K | 0.000122 | 5.61e-06 | 9.35e-06 | –
294.2 K | – | – | – | 0.000336
300.15 K | 0.000186 | 6.75e-06 | 1.04e-05 | –
300.2 K | – | – | – | 0.000412
306.15 K | 0.000276 | 7.73e-06 | 1.15e-05 | –
306.2 K | – | – | – | 0.000526
312.15 K | 0.000395 | 9.24e-06 | 1.3e-05 | –
312.2 K | – | – | – | 0.000636
318.15 K | 0.000564 | 1.06e-05 | 1.41e-05 | –
318.2 K | – | – | – | 0.000768
324.15 K | 0.00075 | 1.24e-05 | 1.65e-05 | –
324.2 K | – | – | – | 0.000934
330.15 K | 0.000967 | 1.54e-05 | 1.79e-05 | –
